# Assay results published in ChEMBL document CHEMBL1130729, “Synthesis and transporter binding properties of (R)-2 beta, 3 beta- and (R)-2 alpha, 3 alpha-diaryltropanes” (Bioorg Med Chem Lett, 1998).
# Key:
# [1] = molecular target: Norepinephrine transporter (Rattus norvegicus, UniProt Q9WTR4); assay: Inhibitory activity against radioligand [3H]nisoxetine binding at the norepinephrine transporter
# [2] = molecular target: Sodium-dependent serotonin transporter (Rattus norvegicus, UniProt P31652); assay: Inhibitory activity against radioligand [3H]paroxetine binding at the serotonin transporter
# Chain of Sodium-dependent serotonin transporter (P31652 whole entry): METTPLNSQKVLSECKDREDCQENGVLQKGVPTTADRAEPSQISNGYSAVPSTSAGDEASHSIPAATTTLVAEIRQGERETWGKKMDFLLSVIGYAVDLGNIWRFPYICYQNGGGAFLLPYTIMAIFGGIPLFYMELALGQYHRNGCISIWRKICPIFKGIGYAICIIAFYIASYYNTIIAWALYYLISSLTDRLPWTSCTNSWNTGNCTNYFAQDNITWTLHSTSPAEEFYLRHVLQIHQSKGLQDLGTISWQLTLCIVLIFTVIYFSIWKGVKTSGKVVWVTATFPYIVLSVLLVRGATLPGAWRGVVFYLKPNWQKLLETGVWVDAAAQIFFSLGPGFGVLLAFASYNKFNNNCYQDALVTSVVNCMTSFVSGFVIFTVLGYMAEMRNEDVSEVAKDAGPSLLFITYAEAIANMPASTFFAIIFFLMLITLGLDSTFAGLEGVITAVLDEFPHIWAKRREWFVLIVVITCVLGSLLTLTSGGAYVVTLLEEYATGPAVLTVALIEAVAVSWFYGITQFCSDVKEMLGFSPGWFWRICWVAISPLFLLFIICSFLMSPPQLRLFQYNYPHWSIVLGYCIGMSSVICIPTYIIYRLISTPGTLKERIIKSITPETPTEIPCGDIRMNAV
# [3] = molecular target: Sodium-dependent dopamine transporter (Rattus norvegicus, UniProt P23977); assay: Inhibitory activity against radioligand [3H]WIN-35428 binding at the dopamine transporter
# Chain of Sodium-dependent dopamine transporter (P23977 whole entry): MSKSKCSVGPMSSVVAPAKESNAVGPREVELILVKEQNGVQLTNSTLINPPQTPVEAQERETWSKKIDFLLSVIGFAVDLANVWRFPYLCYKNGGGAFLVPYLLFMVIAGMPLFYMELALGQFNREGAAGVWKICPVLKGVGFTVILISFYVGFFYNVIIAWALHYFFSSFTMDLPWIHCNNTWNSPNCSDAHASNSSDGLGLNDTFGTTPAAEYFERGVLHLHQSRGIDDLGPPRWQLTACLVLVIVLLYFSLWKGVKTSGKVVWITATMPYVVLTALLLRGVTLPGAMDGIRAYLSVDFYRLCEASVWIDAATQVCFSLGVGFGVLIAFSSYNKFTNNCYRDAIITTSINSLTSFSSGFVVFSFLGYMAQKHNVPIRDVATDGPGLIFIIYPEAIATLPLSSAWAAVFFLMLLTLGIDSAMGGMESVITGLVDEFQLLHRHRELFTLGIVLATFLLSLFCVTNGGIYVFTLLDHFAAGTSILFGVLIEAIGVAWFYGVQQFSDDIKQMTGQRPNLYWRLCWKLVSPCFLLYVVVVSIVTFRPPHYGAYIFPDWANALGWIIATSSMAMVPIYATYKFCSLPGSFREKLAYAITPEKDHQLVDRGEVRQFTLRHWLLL
# Chain of Norepinephrine transporter (Q9WTR4 whole entry): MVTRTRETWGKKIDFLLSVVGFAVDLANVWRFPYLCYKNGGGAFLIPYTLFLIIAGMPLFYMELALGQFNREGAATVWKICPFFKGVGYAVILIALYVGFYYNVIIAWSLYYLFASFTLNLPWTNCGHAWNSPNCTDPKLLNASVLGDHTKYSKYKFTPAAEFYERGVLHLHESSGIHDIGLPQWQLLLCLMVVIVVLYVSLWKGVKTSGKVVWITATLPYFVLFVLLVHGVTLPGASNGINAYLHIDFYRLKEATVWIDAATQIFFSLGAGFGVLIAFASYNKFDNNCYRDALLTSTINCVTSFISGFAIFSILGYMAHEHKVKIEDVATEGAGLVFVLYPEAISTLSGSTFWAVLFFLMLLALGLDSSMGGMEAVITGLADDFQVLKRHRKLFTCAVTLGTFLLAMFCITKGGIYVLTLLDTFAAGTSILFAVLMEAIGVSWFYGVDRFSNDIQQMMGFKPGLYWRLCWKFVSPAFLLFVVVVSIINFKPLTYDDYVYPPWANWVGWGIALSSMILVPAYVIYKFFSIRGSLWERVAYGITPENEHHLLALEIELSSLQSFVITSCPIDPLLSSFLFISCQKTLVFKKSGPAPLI
Compound,IC50 [1],IC50 [2],IC50 [3]
Cc1ccc(C2C[C@H]3CCC(C2c2ccccc2)N3C)cc1 (stereo in doubt; (R)-3b),479 nM,11000 nM,1.96 nM
CN1[C@@H]2CC[C@H]1C(c1ccccc1)C(c1ccccc1)C2 (mixture of isomers; form 1),2670 nM,34700 nM,28 nM
Cc1ccc(C2C[C@H]3CCC(C2c2ccccc2)N3C)cc1 (stereo in doubt; (R)-4b),4850 nM,15800 nM,429 nM
CN1[C@@H]2CC[C@H]1C(c1ccccc1)C(c1ccccc1)C2 (mixture of isomers; form 2),2770 nM,186000 nM,
"CN1C2CC[C@@H]1C[C@@H](c1ccccc1)[C@@H]2c1ccccc1 (single isomer, unassigned; form 1)",917 nM,21100 nM,12.6 nM
"CN1C2CC[C@@H]1C[C@@H](c1ccccc1)[C@@H]2c1ccccc1 (single isomer, unassigned; form 2)",1040 nM,41300 nM,690 nM
